Columns and labels:
HCMV [1] = experiment: HCMV titer, plaque or yield reduction; format: cell-based, human cytomegalovirus (Towne strain) in HFF cells
Description: (§1) The 148 strain of HSV-1 was used in most experiments and was provided by Dr. T. W. Schafer of Schering corporation. The HF strain of HSV-1 was used in selected experiments and was obtained from Dr. G. H. Cohen, University of Pennsylvania. The Towne strain, plaque-purified isolate Po, of HCMV was a gift of Dr. Mark Stinski, University of Iowa.
(§2) HCMV was titered in 24-well cluster dishes which were planted to contain 5×10^4 cells/well, grown as described above. When the cells were 70 to 80% confluent, 0.2 ml of the virus suspension was added per wall and adsorbed as described above. At least three ten-fold dilutions of each preparation were used. Following virus adsorption, the cell sheets were overlayed with 0.5% methocel (4000 CPS) in maintenance medium [MEM(E) with 1.1 gm/liter NaHCO3, 100 units/ml penicillin G, 100 μg/ml streptomycin, and 5% fetal bovine serum]. The cultures were incubated in a humidified atmosphere of 4% CO2 -96% air. Viral foci were visible 5 to 7 days after infection using at least 10-fold magnification. Cells were fixed and stained by a 10-minute exposure to a 0.1% solution of crystal violet in 20% methanol 7 to 12 days after infection. Microscopic foci were enumerated at 20-fold magnification using a Nikon Profile Projector.
(§3) The effect of compounds of the replication of HCMV has been measured using both a plaque (focus) reduction assay and a titer (yield) reduction assay. For the former, HFF cells in 24-well culture dishes were infected with approximately 50 p.f.u. of HCMV per well using the procedures detailed above. Compounds dissolved in growth medium were added in three to six selected concentrations to triplicate wells following virus adsorption. Following incubation at 37° C. for 7 to 10 days, cell sheets were fixed, stained and microscopic foci were enumerated as described above. Drug effects were calculated as a percentage of reduction in number of foci in the presence of each drug concentration compared to the number observed in the absence of drug. DHPG (ganciclovir) was used as a positive control in all experiments.
(§4) For titer reduction analysis, HFF cells were planted as described above in 24-well cluster dishes or in 25 cm^2 flasks. When monolayers were approximately 70% confluent, HCMV was added at a m.o.i. of 0.5 p.f.u. per cell and adsorbed as detailed above. Compounds dissolved in growth medium were added in one or one-half logarithm10 dilutions and incubation continued at 37° C. After 7 to 10 days of incubation, culture dishes or flasks were frozen at […] For titer determination, cells were thawed and then subjected to two more cycles of freezing and thawing at 37° C. Serial, one-logarithm10 dilutions of the final suspension were prepared and inoculated onto new cultures of HFF cells. Titer determination was as detailed above in part (1) (b).
(§5) Dose-response relationships were used to compare drug effects. These were constructed by linearly regressing the percent inhibition of parameters derived in the preceding sections against log drug concentrations. The 50% inhibitory (I50) concentrations were calculated from the regression lines using the methods described by Goldstein. See Goldstein, A., Biostatistics: An Introductory Text, MacMillan, N.Y., 1964, pp. 156-161. Along with the I50 concentration for visual cytotoxicity, the averaged I50 concentrations are compared to I50 concentrations for inhibition for HCMV or HSV-1 replication. Compounds for which the ratio of cytotoxicity I50 concentrations to antiviral I50 concentrations (in vitro therapeutic index) were greater than 10, were considered for further study.

[2] = Visual cytotoxicity scoring in BSC-1 cells; format: cell-based; conditions: african green monkey, Table 1, at time of HSV-1 plaque enumeration, read-out: 50% Inhibitory Concentration Cytotoxicity BSC (visual)
Description: (§6) Cytotoxicity produced in HFF and BSC-1 cells was estimated by visual scoring of cells not affected by virus infection in the HCMV and HSV-1 plaque reduction assays. Cytopathology was estimated at 35- and 60-fold magnification and scored on a zero to four plus basis. Wells were scored on the day of staining.
as §5

HCMV [3] = experiment: HCMV titer (yield) reduction assay; format: cell-based; conditions: Human betaherpesvirus 5; for IC90: Table 1, I90, HFF cells, read-out: HCMV Yield, 90% inhibitory concentration (I90)
Description: as §1, §2, §4, §5

HCMV [4] = experiment: HCMV plaque (focus) reduction assay; format: cell-based; conditions: Human betaherpesvirus 5; Table 1; HFF cells; read-out: 50% Inhibitory Concentration HCMV Plaque
Description: as §1, §2, §3, §5

HSV-1 = HSV-1 plaque reduction assay, strain S148; format: cell-based, herpes simplex virus type 1 (strain S148) in BSC-1 cells; conditions: Human alphaherpesvirus 1; Table 1; strain S148; BSC-1 cells; read-out: 50% Inhibitory Concentration HSV-1 Plaque
Description: as §1
HSV-1 was titered using monolayer cultures of BSC-1 cells. Cells were planted at 3×10^5 cells/well using 6-well cluster dishes. MEM(E) supplemented with 10% fetal bovine serum was employed as medium. After 22-24 hours, cells were 90% confluent and were inoculated in triplicate using at least three ten-fold dilutions with 0.2 ml of the virus suspension to be assayed and incubated in a humidified 4% CO2 […] atmosphere for one hour to permit viral adsorption. Following virus adsorption, the cell sheet was overlayed with 5 ml of MEM(E) with 5% serum plus 0.5% methocel (4000 CPS) and incubated an additional two to three days. Cells were fixed and stained with 0.1% crystal violet in 20% methanol and macroscopic plaques enumerated.
Plaque reduction experiments were HSV-1 were performed using monolayer cultures of BSC-1 cells. The assay was performed exactly as described above except that the 0.2 ml virus suspension contained approximately 100 p.f.u. of HSV-1. Compounds to be tested were dissolved in the overlay medium at concentrations usually ranging from 0.1 to 100 μM in half-or-one logarithm10 dilutions. Titer reduction assays were performed by planting KB cells in 25 cm^2 plastic tissue culture flasks 10 to 24 hours prior to infection. At the onset of experiments, logarithmically growing replicate monolayer cultures were 60 to 80% confluent and contained 2.5 to 4.5×10^6 cells/flask. Medium was decanted and the cultures were infected with 2 to 10 p.f.u. of HSV-1 per cell. Virus was contained in 1.0 ml of VGM supplemented with 5% fetal bovine serum. After a 1 hour adsorption period at […], the cell sheet was rinsed twice with 2 ml of VGM without serum to remove unadsorbed virus and 5 ml of VGM containing drugs at three to five selected concentrations added in duplicate. Following an 18- to 22-hour incubation at 37° C., infected monolayers were treated with EDTA-trypsin to suspend the cells; aliquots were removed, subjected to three cycles of freezing and thawing, and stored at -76° C. for subsequent virus assay. Virus was titered on BSC-1 cells as described above.
as §5

in vitro = format: cell-based, human; conditions: human, kb cells
Description: (§7) KB or HFF cells were planted using a Costar Transplate-96 (Costar, Cambridge, Mass.) in Costar 96-well cluster dishes at a concentration of 10,000 to 12,000 cells per well. Wells were suspended in 200 μl of medium [MDM(H) plus 0.7 gm/liter NaCHO3 supplemented with 10% calf serum] per well. After incubation of 16 to 24 hours at 37° C. in a humidified atmosphere of 4% CO2 in air, […] of medium was removed per well. One-hundred μl of medium with or without compounds in twice their final concentrations was added to each well using a Titertek Multichannel Pipette. Final concentrations of compounds ranged from 0.1 to 320 μM. Fifty μl of medium containing radioactive precursors also was added to each well to give a final concentration to 1 to 3 μCi/ml of labeled precursor. [^3 H]Thd was diluted with unlabeled dThd to give a final concentration of 3 or 6 μM.
(§8) Logarithmic cell growth occurred during this time with continual uptake of labeled precursors. At the end of the incubation period, cells were individually harvested from each well using a Skatron Cell harvester (Skatronh, Inc., Sterling, Va.). Cultures for individual wells were harvested onto filter paper and washed free of unincorporated label with nine sequential washes with 5% trichloroacetic acid, nine washes with water, and nine with ethanol using the Skatron unit. Filters were dried, circles from individual cultures were punched from the filter mat and placed into mini-vials. Liquid scintillation solution was added, and radioactivity determined in a Beckman model LS8100 liquid scintillation spectrometer. All samples were counted for 2.0 minutes each, with three rounds of counting. Counts per minute were determined following the application of statistical methods to eliminate count rates which fell outside distribution limits defined by Chauvenet's rejection criterion.
(§9) All analyses were performed in triplicate. That is, three culture wells were used per time point, radioactive precursor, and drug concentration in all experiments. Results from triplicate assays were converted to percent of control and plotted as log dose-response curves from which 50% inhibitor (I50) concentrations were interpolated. Three concentrations of vidarabine were included on all plates as a positive control.
as §5

KB cells [5] = experiment: cells; format: cell-based, human; conditions: Homo sapiens; [3H]dThd incorporation, KB cells; read-out: I50 on [3H]dThd incorporation
Description: as §7, §8, §9, §5

[6] = Visual cytotoxicity scoring in HFF cells; format: cell-based; conditions: human, Table 1, at time of HCMV plaque enumeration, read-out: 50% Inhibitory Concentration Cytotoxicity HFF (visual)
Description: as §6, §5

[7] = Growth of KB cells (population doubling times); format: cell-based, human; conditions: human, kb cells; 100 μM; read-out: reduction of KB cell growth rate
Description: (§10) Population doubling times and cell viability were measured in uninfected HFF and/or KB cells. Cells were planted in replicate 6-well plastic tissue culture dishes or in 25 cm^2 flasks as described above in part 1. Following an incubation period during which cells attached to the substrate, medium was decanted, the cell sheet rinsed once with HBS, and fresh medium added. The medium consisted of MEM(E) with 1.1 gm NaHCO3 /liter and 10% fetal bovine or calf serum plus appropriate log or half-log concentrations of drug. After additional periods of incubation from 1 to 72 hours at 37° C., cells were harvested by means of 0.05% trypsin plus 0.02% EDTA in a HEPES-buffered salt solution. Cells were enumerated using either a Coulter counter or a hemocytometer and viability determining using trypsan blue dye exclusion.
(§11) In more extensive cytotoxicity testing, the halogenated compounds were tested for effects on the growth of KB cells. Populations doubling times were calculated from the logarithmic portions of growth curves and were as follows: […]

KB cells [8] = experiment: Growth of KB cells (population doubling times); format: cell-based, human
Description: as §10, §11

viruses = conditions: cited from earlier work

Row | Structure (SMILES) | activity against HCMV (in words) (HCMV [1]) | IC90 (HCMV [3]) | IC50 (HCMV [4]) | CC50 [6] | antiviral activity previously reported (viruses) | other results
1 | NC(=S)c1cn(COCCO)c2ncnc(N)c12 [UMJD 229, 4-Amino-7-(2-hydroxyethoxymethyl)pyrrolo[2,3-d]pyrimidine-5-thiocarboxamide] | active | 80 µM | 11 µM | 100 µM | – | CC50 [2]: > 100 µM; IC50 (HSV-1): > 100 µM; CC50 (in vitro): > 100 µM; IC50 (KB cells [5]): 10 µM
2 | NC(=S)c1cn(COC(CO)CO)c2ncnc(N)c12 [UMJD 239, 4-Amino-7-[(1,3-dihydroxy-2-propoxy)methyl]pyrrolo[2,3-d]-pyrimidine-5-thiocarboxamide] | – | 25 µM | 8 µM | > 100 µM | – | CC50 [2]: > 100 µM; IC50 (HSV-1): > 100 µM; CC50 (in vitro): > 100 µM; IC50 (KB cells [5]): 28 µM
3 | OCC(CO)OCn1cc(Cl)c2c(NO)ncnc21 [UMJD 328, 4-hydroxylamino-5-chloro-7-[(1,3-dihydroxy-2-propoxy)methyl]pyrrolo[2,3-d]pyrimidine] | active and nearly as potent as the 4-amino analogs | 24 µM | 56 µM | > 100 µM | – | –
4 | OCC(CO)OCn1cc(I)c2c(NO)ncnc21 [UMJD 329, 4-hydroxylamino-5-iodo-7-[(1,3-dihydroxy-2-propoxy)methyl]pyrrolo[2,3-d]pyrimidine] | active and nearly as potent as the 4-amino analogs | 3.2 µM | 18 µM | > 100 µM | – | inhibition at 100 µM [7]: > 50%; KB cell growth rate (in words) (KB cells [8]; 10 μM): nearly control rates; effect on KB cell growth (in words) (KB cells [8]; comparison with UMJD 102 / UMJD 183): considerably lesser effects on cell growth
5 | Nc1ncnc2c1c(I)cn2COC(CO)CO [UMJD 330, 4-amino-5-iodo-7-[(1,3-dihydroxy-2-propoxy)methyl]-pyrrolo[2,3-d]pyrimidine] | – | 0.9 µM | 3.1 µM | > 100 µM | – | log reduction at 100 µM (HCMV [3]; FIG. 2, 10-fold higher concentration than UMJD 183 (10 μM)): 5
6 | NC(=O)c1cn([C@@H]2O[C@H](CO)[C@@H](O)[C@H]2O)c2ncnc(N)c12 [sangivamycin] | – | – | – | – | Broad spectrum antiviral activity | –
7 | N#Cc1cn([C@@H]2O[C@H](CO)[C@@H](O)[C@H]2O)c2ncnc(N)c12 [toyocamycin] | – | – | – | – | Broad spectrum antiviral activity | –
8 | Nc1ncnc2c1ccn2[C@@H]1O[C@H](CO)[C@@H](O)[C@H]1O [tubercidin] | – | – | – | – | Broad spectrum antiviral activity | –

Reference: patent US4968686A, “Acyclic pyrrolo [2,3-d]pyrimidine analogs as antiviral agents” (The Regents of The University of Michigan, priority 1989, dated 1990)
